Source: patent EP1175222B1, “MONTHLY DOSES OF GLYCOPEPTIDE ANTIBIOTICS FOR LONG-TERM PREVENTION OF STREPTOCOCCUS PNEUMONIAE INFECTIONS” (ELI LILLY AND COMPANY, priority 1999, dated 2000)
In brackets after ≈: the same amount, converted by molar mass. Like-named read-outs stand apart in the source and are kept apart here.

How the values were obtained:
Streptococcus pneumoniae = test: MIC90 by NCCLS broth microdilution against a worldwide collection of Streptococcus pneumoniae; assay type: cell-based
Experimental: (§1) The term "MIC" or "minimum inhibitory concentration" refers to the lowest concentration of the agent that prevents visible growth after 18 to 24 hours of incubation. "MIC90" refers to the lowest concentration of the agent that prevents 90% growth after 18 to 24 hours of incubation. "MBC" or "minimal bactericidal concentration" refers to the lowest concentration that results in a 99.9% decline in bacterial numbers. Although the value of the MBC as a clinical test has not been established, it may be useful in special instances where very precise knowledge of the ability of a given antimicrobial agent to kill a specific clinical isolate is critical, as in the therapy of bacterial endocarditis.
Table 1 lists the in vitro activity of N^DISACC-(4-(4-chlorophenyl)benzyl)A82846B and other compounds against a worldwide collection of Streptococcus pneumoniae. N^DISACC-(4-(4-chlorophenyl)benzyl)A82846B clearly demonstates a significant improvement against all three strains. […]
MICs were determined using NCCLS broth microdilution methodology (see, Fasola E., Spangler SK., Ednie LM., Jacobs MR., Bajaksouzian S., and Appelbaum PC., "Comparative activities of LY 333328 against penicillin-susceptible and -resistant pneumococci" Antimicrobial Agents & Chemotherapy, 40(11), 2661-3 (1996)).

S.pneumoniae = test: In vitro time-kill curves; assay type: cell-based; settings: 10 mg/l
Experimental: (§2) At 12 h after infection, they were treated with a single dose of N^DISACC-(4-(4-chlorophenyl)benzyl)A82846B [1 mg/kg (n = 5), 2.5 mg/kg (n = 5), 10 mg/kg (n = 10), […] (n = 2)] . N^DISACC-(4-(4-chlorophenyl)benzyl)A82846B was dissolved in 5% glucose and infused over 30 min. Controls received a bolus of ceftriaxone (20 mg/kg body weight) followed by a continuous infusion of 10 mg/kg/h (n = 12). The cerebrospinal fluid (CSF) was drawn at 12, 14, 17, 20, and 24h for the determination of bacterial titers, leukocyte densities, lipoteichoic/teichoic acid, lactate and protein concentrations. The concentration of the neuron-specific enolase in CSF was measured at 24h. Bactericidal activity in CSF was estimated by log-linear regression of bacterial titers versus time. Additionally, time-kill curves were performed with 10 mg/l N^DISACC-(4-(4-chlorophenyl)benzyl)A82846B.

[1] = system: penicillin-sensitive S. pneumoniae type 3 strain; test: In-vivo rabbit model of S. pneumoniae meningitis (CSF measurements); settings: rabbits
Experimental: as §2

S aureus SA027 = test: Mouse protection model, intraperitoneal bacterial challenge; assay type: in vivo; settings: mice; dose protecting 50% from lethal infection; two subcutaneous doses 1 and 5 hours after challenge
Experimental: (§3) As listed in Table 2, N^DISACC-(4-(4-chlorophenyl)benzyl)A82846B appeared to have activity 30 to 40 times that of vancomycin when given subcutaneously to mice with systemic streptococcal or staphylococcal infections. […] In a murine model of systemic infection, various dosing regimens of N^DISACC-(4-(4-chlorophenyl)benzyl)A82846B administered subcutaneously were compared in animals inoculated intraperitoneally with either S pneumoniae or S aureus. The total dose ranged from 0.18 to 2.01 mg/kg body weight, subdivided into 1 to 24 doses during a 48-hour treatment period. Pharmacokinetic studies were performed in uninfected animals using a bioassay. Using multiple regression analysis to find the pharmacodynamic parameter associated with survival, time above the MIC appeared-to be more important (p<0.00001) than the maximum plasma concentration Cmax (p=0.01); however, for 1- and 2-dose regimens near the ED50, Cmax appeared to be the best predictor of outcome. A more detailed description of this study may be found in Knudsen, J., et al., "Pharmacodynamics of glycopeptides in Animal Models" Abstracts of the 20th International Congress of Chemotherapy, Abstract No. 4076, June (1997). […]

S pyogenes C-203 = test: as above; assay type: in vivo; settings: mice; dose protecting 50% from lethal infection; two subcutaneous doses 1 and 5 hours after challenge
Experimental: as §3

S pneumoniae Park I = test: as above; assay type: in vivo; settings: mice; dose protecting 50% from lethal infection; two subcutaneous doses 1 and 5 hours after challenge
Experimental: as §3

[2] = Safety and pharmacokinetics of single intravenous doses in eight healthy men; assay type: in vivo
Experimental: An open-label, uncontrolled, dose-escalation study was conducted with eight healthy men. All subjects were between 22 and 50 years of age and within 10% of their ideal body weights. Single does, ranging from 0.5 mg/kg body weight to 3 mg/kg body weight, were administered intravenously over 30 minutes. Plasma samples were collected just prior to the start of infusion and at intervals for 336 hours after the end of the infusion for assessment of drug concentration, biochemical and hematologic parameters. N^DISACC-(4-(4-chlorophenyl)benzyl) A82846B plasma and urine concentrations were determined by HPLC and competitive binding radioimmunoassay, respectively. Individual plasma concentration-time profiles were evaluated based on compartmental analysis techniques.

S. pneumoniae = test: Neutropenic model of S. pneumoniae bacteremia in mice; assay type: in vivo; settings: subcutaneously or intravenously at doses ≥ 5 mg/kg body weight
[3] = system: penicillin-sensitive S. pneumoniae type 3 strain; test: MIC and MBC for the meningitis model strain; assay type: cell-based; settings: penicillin-sensitive type 3 strain
Experimental: as §1
as §2, with “Bactericidal activity in CSF was estimated by log-linear regression of bacterial titers versus time. Additionally, time-kill curves were performed with 10 mg/l N^DISACC-(4-(4-chlorophenyl)benzyl)A82846B.” left out

[4] = parameters: species or system rats; settings: rat, in vivo, 5 mg/kg
Text: Although single doses of N^DISACC-(4-(4-chlorophenyl)benzyl)A82846B may provide high plasma concentrations for a prolonged period of time, it may also be highly desirable to maintain high concentrations in respiratory tissues (the main portal of initial tissue infection and invasion).

[5] = parameters: species or system mice; settings: mouse, in vivo, sc
Experimental: as §3

[6] = Intermediate N = 40 (penicillin-intermediate by NCCLS criteria)
[7] = Resistant N = 42 (penicillin-resistant by NCCLS criteria)
[8] = Sensitive N = 50 (penicillin-sensitive by NCCLS criteria)
[9] = Streptococcus pneumoniae, Intermediate N = 40 (penicillin-intermediate by NCCLS criteria), read-out: MIC90
[10] = Streptococcus pneumoniae, Resistant N = 42 (penicillin-resistant by NCCLS criteria), read-out: MIC90
[11] = Streptococcus pneumoniae, Sensitive N = 50 (penicillin-sensitive by NCCLS criteria), read-out: MIC90
[12] = estimated by Lineweaver-Burk plot
[13] = healthy men, single i.v. dose 0.5 to 3 mg/kg over 30 minutes
[14] = healthy men, single i.v. dose 0.5 to 3 mg/kg over 30 minutes, normalized to dose and weight

Teicoplanin
MIC90 (Streptococcus pneumoniae; [6]): 0.06 µg/mL
MIC90 (Streptococcus pneumoniae; [7]): 0.06 µg/mL
MIC90 (Streptococcus pneumoniae; [8]): 0.06 µg/mL

CO/N=C(\C(=O)N[C@@H]1C(=O)N2C(C(=O)O)=C(CSc3nc(=O)c(=O)[nH]n3C)CS[C@H]12)c1csc(N)n1 [Ceftriaxone]
time until S.pneumoniae killed / cultures sterile (S.pneumoniae): 12 h
MIC90 (Streptococcus pneumoniae; [9]): 0.5 µg/mL (≈ 0.902 µM)
MIC90 (Streptococcus pneumoniae; [10]): 2 µg/mL (≈ 3.61 µM)
MIC90 (Streptococcus pneumoniae; [11]): 0.06 µg/mL (≈ 0.108 µM)
bactericidal activity in CSF, Δlog CFU/ml/h ± SD ([1]; bolus 20 mg/kg body weight then continuous infusion of 10 mg/kg/h): -0.33 ± 0.15 Δlog CFU/ml/h

CO[C@H]1/C=C/O[C@@]2(C)Oc3c(C)c(O)c4c(O)c(c(/C=N/N5CCN(C)CC5)c(O)c4c3C2=O)NC(=O)/C(C)=C\C=C\[C@H](C)[C@H](O)[C@@H](C)[C@@H](O)[C@@H](C)[C@H](OC(C)=O)[C@@H]1C [Rifampin]
MIC90 (Streptococcus pneumoniae; [9]): 0.015 µg/mL (≈ 0.0182 µM)
MIC90 (Streptococcus pneumoniae; [10]): > 8 µg/mL
MIC90 (Streptococcus pneumoniae; [11]): 0.03 µg/mL (≈ 0.0365 µM)

CN[C@H](CC(C)C)C(=O)N[C@H]1C(=O)N[C@@H](CC(N)=O)C(=O)N[C@H]2C(=O)N[C@H]3C(=O)N[C@H](C(=O)N[C@H](C(=O)O)c4cc(O)cc(O)c4-c4cc3ccc4O)[C@H](O)c3ccc(c(Cl)c3)Oc3cc2cc(c3O[C@@H]2O[C@H](CO)[C@@H](O)[C@H](O)[C@H]2O[C@H]2C[C@](C)(N)[C@H](O)[C@H](C)O2)Oc2ccc(cc2Cl)[C@H]1O [Vancomycin]
MIC90 (Streptococcus pneumoniae; [6]): 0.5 µg/mL (≈ 0.345 µM)
MIC90 (Streptococcus pneumoniae; [7]): 0.5 µg/mL (≈ 0.345 µM)
MIC90 (Streptococcus pneumoniae; Streptococcus pneumoniae): 0.5 µg/mL (≈ 0.345 µM)
ED50 (S aureus SA027): 0.70 mg/kg/dose
ED50 (S pyogenes C-203): 0.80 mg/kg/dose
ED50 (S pneumoniae Park I): 1-1 mg/kg/dose

N^DISACC-(4-(4-chlorophenyl)benzyl)A82846B
time until S.pneumoniae killed / cultures sterile (S.pneumoniae): ≤ 1 h
MIC90 (Streptococcus pneumoniae; [6]): 0.015 µg/mL
MIC90 (Streptococcus pneumoniae; [7]): 0.03 µg/mL
MIC90 (Streptococcus pneumoniae; [8]): 0.008 µg/mL
ED50 (S aureus SA027): 0.009 mg/kg/dose
ED50 (S pyogenes C-203): 0.045 mg/kg/dose
ED50 (S pneumoniae Park I): 0.028 mg/kg/dose
terminal t1/2 ([2]; healthy men, single i.v. doses, to be interpreted cautiously): 10.5 days
area under the terminal phase as share of total AUC0-∞ ([2]; human, in vivo, iv): approximately 50%
effect on bacteremia (S. pneumoniae): eliminated bacteremia
MBC [3]: 0.03 µg/mL
MIC [3]: 0.015 µg/mL
lung tissue half life [4]: 29 days
absorption following subcutaneous administration [5]: absorbed poorly
mean concentration of the neuron-specific enolase in CSF at 24h ([1]; 10 mg/kg body weight, parameter of neuronal damage, p = 0.14 vs ceftriaxone): 92.3 ± 68.7
half-maximal dose (KD) [1, 12]: 5.3 mg/kg body weight
maximum bactericidal rate (Emax) [1, 12]: -0.88 Δlog CFU/ml/h
bactericidal activity in CSF, Δlog CFU/ml/h ± SD ([1]; single dose of 1 mg/kg body weight (only bacteriostatic)): 0.01 ± 0.11 Δlog CFU/ml/h
bactericidal activity in CSF, Δlog CFU/ml/h ± SD ([1]; single dose of 2.5 mg/kg): -0.26 ± 0.22 Δlog CFU/ml/h
bactericidal activity in CSF, Δlog CFU/ml/h ± SD ([1]; single dose of 10 mg/kg body weight 12 h after infection): -0.29 ± 0.21 Δlog CFU/ml/h
Protein, lactate and lipoteichoic/teichoic acid concentrations in CSF ([1]; single dose of 10 mg/kg body weight compared with ceftriaxone 10 mg/kg/h): no significant differences
bactericidal activity in CSF, Δlog CFU/ml/h ([1]; single dose of 40 mg/kg): -0.52 ± 0.02 Δlog CFU/ml/h

CC1(C)S[C@@H]2[C@H](NC(=O)Cc3ccccc3)C(=O)N2[C@H]1C(=O)O [Penicillin G]
MIC90 (Streptococcus pneumoniae; [6]): 1.0 µg/mL (≈ 2.99 µM)
MIC90 (Streptococcus pneumoniae; [7]): 4.0 µg/mL (≈ 12 µM)
MIC90 (Streptococcus pneumoniae; [8]): 0.06 µg/mL (≈ 0.179 µM)

C[C@@H](O)[C@H]1C(=O)N2C(C(=O)O)=C(SCCN=CN)C[C@H]12 [Imipenem]
MIC90 (Streptococcus pneumoniae; [9]): 0.125 µg/mL (≈ 0.418 µM)
MIC90 (Streptococcus pneumoniae; [10]): 0.5 µg/mL (≈ 1.67 µM)
MIC90 (Streptococcus pneumoniae; [11]): 0.03 µg/mL (≈ 0.1 µM)

CN[C@H](CC(C)C)C(=O)N[C@H]1C(=O)N[C@@H](CC(N)=O)C(=O)N[C@H]2C(=O)N[C@H]3C(=O)N[C@H](C(=O)N[C@H](C(=O)O)c4cc(O)cc(O)c4-c4cc3ccc4O)[C@H](O[C@H]3C[C@](C)(N)[C@@H](O)[C@H](C)O3)c3ccc(c(Cl)c3)Oc3cc2cc(c3O[C@@H]2O[C@H](CO)[C@@H](O)[C@H](O)[C@H]2O[C@H]2C[C@](C)(N)[C@@H](O)[C@H](C)O2)Oc2ccc(cc2Cl)[C@H]1O [A82846B]
ED50 (S pyogenes C-203): 0.18 mg/kg/dose
ED50 (S pneumoniae Park I): 0.18 mg/kg/dose

N^DISACC-(4-(4-chlorophenyl)benzyl)A82846B Diphosphate
% dose excreted in urine, Mean (%CV) [2, 13]: 3.1 (42) %
T1/2, Mean (%CV) [2, 13]: 251 (96) hr
AUC0-∞, Mean (%CV) [2, 14]: 201 (62) (µg hr/ml)/(mg/kg)
Cmax, Mean (%CV) [2, 14]: 16.5 (20) (µg/ml)/(mg/kg)
Clp, Mean (%CV) ([2]; healthy men, single i.v. dose 0.5 to 3 mg/kg over 30 minutes, plasma clearance): 0.0896 (30) ml/min/kg
Vss, Mean (%CV) ([2]; healthy men, single i.v. dose 0.5 to 3 mg/kg over 30 minutes, steady-state volume of distribution): 1.08 (45) 1/kg
